Results from PubChem BioAssay AID256 (DTP/NCI, 2004).
“And” between values parts separate entries of the source, which are not always exact repeats. Equal values may be shown once. Toxic doses and inconclusive results are not listed.

System: CD2F1 mice, L1210 leukemia ip, survival T/C
Assay: NCI In Vivo Anticancer Drug Screen. Data for tumor model L1210 Leukemia (intraperitoneal) in CD2F1 (CDF1) mice
Details: endpoint: mean survival time, higher = longer survival
In short: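 Ratio T/C, where T is the treated-group value and C the vehicle-dosed control value, from mice implanted with a transplantable tumor.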

[1] = dose: 100.0 mg/kg/injection, schedule: Q04DX003 (ip), vehicle: saline with Tween-80
[2] = dose: 100.0 mg/kg/injection, schedule: Q04DX003 (ip), vehicle: saline
[3] = dose: 200.0 mg/kg/injection, schedule: Q04DX003 (ip), vehicle: saline with Tween-80
[4] = dose: 200.0 mg/kg/injection, schedule: Q04DX003 (ip), vehicle: saline
[5] = dose: 400.0 mg/kg/injection, schedule: Q04DX003 (ip), vehicle: saline with Tween-80
[6] = dose: 400.0 mg/kg/injection, schedule: Q04DX003 (ip), vehicle: saline
[7] = dose: 100.0 mg/kg/injection, schedule: Q01DX009 (ip), vehicle: saline with Tween-80
[8] = dose: 200.0 mg/kg/injection, schedule: Q01DX009 (ip), vehicle: saline with Tween-80
[9] = dose: 400.0 mg/kg/injection, schedule: Q01DX009 (ip), vehicle: saline with Tween-80
[10] = dose: 100.0 mg/kg/injection, schedule: Q01DX001 (ip), vehicle: saline
[11] = dose: 200.0 mg/kg/injection, schedule: Q01DX001 (ip), vehicle: saline
[12] = dose: 100.0 mg/kg/injection, schedule: Q04DX003 (ip), vehicle: Klucel (hydroxypropylcellulose) (HPC)
[13] = dose: 200.0 mg/kg/injection, schedule: Q04DX003 (ip), vehicle: Klucel (hydroxypropylcellulose) (HPC)
[14] = dose: 400.0 mg/kg/injection, schedule: Q04DX003 (ip), vehicle: Klucel (hydroxypropylcellulose) (HPC)
[15] = dose: 100.0 mg/kg/injection, schedule: Q01DX009 (ip), vehicle: saline
[16] = dose: 200.0 mg/kg/injection, schedule: Q01DX009 (ip), vehicle: saline
[17] = dose: 100.0 mg/kg/injection, schedule: Q04DX002 (ip), vehicle: saline with Tween-80
[18] = dose: 200.0 mg/kg/injection, schedule: Q04DX002 (ip), vehicle: saline with Tween-80
[19] = dose: 12.5 mg/kg/injection, schedule: Q01DX005 (ip), vehicle: water
[20] = dose: 25.0 mg/kg/injection, schedule: Q01DX005 (ip), vehicle: water
[21] = dose: 50.0 mg/kg/injection, schedule: Q01DX005 (ip), vehicle: water
[22] = dose: 100.0 mg/kg/injection, schedule: Q01DX005 (ip), vehicle: water
[23] = dose: 200.0 mg/kg/injection, schedule: Q01DX005 (ip), vehicle: water

CC(=O)OC1C(OC(C)=O)C2C(C)(C)CCCC2(C)C2Cc3occc3C(C)C12 (configuration not stated)
T/C (dose: 50.0 mg/kg/injection, schedule: Q04DX003 (ip), vehicle: saline with Tween-80): 96 % of control | T/C (dose: 50.0 mg/kg/injection, schedule: Q04DX003 (ip), vehicle: saline): 102 % of control | T/C [1]: 98 % of control | T/C [2]: 98 % of control | T/C [3]: 96 % of control | T/C [4]: 96 % of control | T/C [5]: 91 % of control | T/C [6]: 96 % of control

Nc1ncc2ccccc2c1-c1ccc(NC(=O)CCCl)cc1
T/C (dose: 25.0 mg/kg/injection, schedule: Q04DX003 (ip), vehicle: DMSO): 98 % of control | T/C (dose: 50.0 mg/kg/injection, schedule: Q04DX003 (ip), vehicle: DMSO): 102 % of control | T/C (dose: 100.0 mg/kg/injection, schedule: Q04DX003 (ip), vehicle: DMSO): 95 % of control | T/C (dose: 200.0 mg/kg/injection, schedule: Q04DX003 (ip), vehicle: DMSO): 102 % of control | T/C (dose: 400.0 mg/kg/injection, schedule: Q04DX003 (ip), vehicle: DMSO): 90 % of control

O=C1CCCC1(c1ccccc1)c1ccccc1
T/C [7]: 101 % of control | T/C [1]: 91 % of control | T/C [8]: 101 % of control | T/C [3]: 91 % of control | T/C [9]: 95 % of control | T/C [5]: 94 % of control

CC12CCC(C(=O)C1=O)C2(C)C (configuration not stated)
T/C [1]: 102 % of control | T/C [3]: 94 % of control | T/C [5]: 102 % of control

COc1ccc(/C=C2/C=C(c3ccccc3)OC2=O)cc1
T/C [2]: 98 % of control | T/C [4]: 101 % of control | T/C [6]: 98 % of control

C/C=C1/C=CC2c3[nH]c4ccccc4c3CCN2C1 (configuration not stated)
T/C (dose: 20.0 mg/kg/injection, schedule: Q01DX001 (ip), vehicle: saline with Tween-80): 93 % of control | T/C (dose: 40.0 mg/kg/injection, schedule: Q01DX001 (ip), vehicle: saline with Tween-80): 98 % of control | T/C (dose: 80.0 mg/kg/injection, schedule: Q01DX001 (ip), vehicle: saline with Tween-80): 90 % of control

Cc1cc(=O)[nH]c(-n2nc(N)nc2N)n1
T/C (dose: 75.0 mg/kg/injection, schedule: Q01DX001 (ip), vehicle: saline): 107 % of control | T/C (dose: 150.0 mg/kg/injection, schedule: Q01DX001 (ip), vehicle: saline): 101 % of control | T/C (dose: 300.0 mg/kg/injection, schedule: Q01DX001 (ip), vehicle: saline): 101 % of control

CCOC(=O)C(C)C(C)=O (configuration not stated)
T/C [10]: 104 % of control | T/C [11]: 98 % of control | T/C (dose: 400.0 mg/kg/injection, schedule: Q01DX001 (ip), vehicle: saline): 101 % of control

O=[N+]([O-])c1cc(S(=O)(=O)c2ccc(N3CCCCC3)c([N+](=O)[O-])c2)ccc1N1CCCCC1
T/C [7]: 91 % of control | T/C [8]: 97 % of control | T/C [9]: 95 % of control

Cc1cc(=O)n(C)c2c(C)cccc12
T/C [7]: 98 % of control | T/C [8]: 92 % of control | T/C [9]: 95 % of control

CCCn1c2ccccc2c2ccccc21
T/C [12]: 91 % of control | T/C [13]: 105 % of control | T/C [14]: 96 % of control

O=C1OCCC1n1ccc(=O)[nH]c1=O (configuration not stated)
T/C [12]: 102 % of control | T/C [13]: 96 % of control | T/C [14]: 102 % of control

c1ccc2c(NCCCCCCNc3c4ccccc4nc4ccccc34)c3ccccc3nc2c1
T/C (dose: 0.62 mg/kg/injection, schedule: Q01DX009 (ip), vehicle: Klucel (hydroxypropylcellulose) (HPC)): 103 % of control | T/C (dose: 1.25 mg/kg/injection, schedule: Q01DX009 (ip), vehicle: Klucel (hydroxypropylcellulose) (HPC)): 114 % of control and 123 % of control and 111 % of control | T/C (dose: 2.5 mg/kg/injection, schedule: Q01DX009 (ip), vehicle: Klucel (hydroxypropylcellulose) (HPC)): 115 % of control and 109 % of control | T/C (dose: 5.0 mg/kg/injection, schedule: Q01DX009 (ip), vehicle: Klucel (hydroxypropylcellulose) (HPC)): 123 % of control and 111 % of control | T/C (dose: 10.0 mg/kg/injection, schedule: Q01DX009 (ip), vehicle: Klucel (hydroxypropylcellulose) (HPC)): 111 % of control | T/C (dose: 20.0 mg/kg/injection, schedule: Q01DX009 (ip), vehicle: Klucel (hydroxypropylcellulose) (HPC)): 104 % of control

CC(=O)Oc1c(C)[nH]ccc1=O
T/C (dose: 25.0 mg/kg/injection, schedule: Q01DX009 (ip), vehicle: saline with Tween-80): 97 % of control | T/C (dose: 25.0 mg/kg/injection, schedule: Q01DX009 (ip), vehicle: saline): 100 % of control | T/C (dose: 50.0 mg/kg/injection, schedule: Q01DX009 (ip), vehicle: saline with Tween-80): 113 % of control and 107 % of control | T/C (dose: 50.0 mg/kg/injection, schedule: Q01DX009 (ip), vehicle: saline): 100 % of control | T/C [7]: 118 % of control and 122 % of control | T/C [15]: 111 % of control | T/C [8]: 150 % of control | T/C [16]: 122 % of control | T/C [9]: 157 % of control

O=C(O)c1ccc([N+](=O)[O-])cc1[N+](=O)[O-]
T/C (dose: 100.0 mg/kg/injection, schedule: Q01DX001 (ip), vehicle: saline with Tween-80): 87 % of control | T/C (dose: 200.0 mg/kg/injection, schedule: Q01DX001 (ip), vehicle: saline with Tween-80): 97 % of control | T/C (dose: 400.0 mg/kg/injection, schedule: Q01DX001 (ip), vehicle: saline with Tween-80): 91 % of control

Cn1c(=O)ccc2ccccc21
T/C [17]: 101 % of control | T/C [18]: 87 % of control

Cc1cccc(C2=N/C(=C\c3ccc(N(C)C)cc3)C(=O)O2)c1
T/C (dose: 25.0 mg/kg/injection, schedule: Q04DX002 (ip), vehicle: saline with Tween-80): 102 % of control | T/C (dose: 50.0 mg/kg/injection, schedule: Q04DX002 (ip), vehicle: saline with Tween-80): 91 % of control | T/C [17]: 94 % of control | T/C [18]: 95 % of control | T/C (dose: 400.0 mg/kg/injection, schedule: Q04DX002 (ip), vehicle: saline with Tween-80): 95 % of control

O=C(Nc1ccc(NC2=NCCN2)cc1)c1ccc(C(=O)Nc2ccc(NC3=NCCN3)cc2)cc1
T/C (dose: 3.0 mg/kg/injection, schedule: Q01DX008 (iv), vehicle: water): 115 % of control

CC1(COCCOCC2(C)CO2)CO1 (configuration not stated)
T/C [15]: 111 % of control | T/C [16]: 114 % of control | T/C (dose: 264.0 mg/kg/injection, schedule: Q04DX003 (ip), vehicle: saline): 116 % of control | T/C [6]: 113 % of control | T/C (dose: 600.0 mg/kg/injection, schedule: Q04DX003 (ip), vehicle: saline): 121 % of control

c1ccc(CCNc2ncnc3nc[nH]c23)cc1
T/C (dose: 6.25 mg/kg/injection, schedule: Q01DX005 (ip), vehicle: water): 94 % of control | T/C [19]: 96 % of control | T/C [20]: 96 % of control | T/C [21]: 97 % of control | T/C [22]: 92 % of control | T/C [23]: 111 % of control

Cn1c(=O)cc(O)c2ccccc21
T/C [1]: 101 % of control | T/C [3]: 97 % of control | T/C [5]: 97 % of control

Cc1ccc(C(C)C)c(OCCN)c1
T/C (dose: 25.0 mg/kg/injection, schedule: Q04DX002 (ip), vehicle: saline): 94 % of control | T/C (dose: 50.0 mg/kg/injection, schedule: Q04DX002 (ip), vehicle: saline): 97 % of control | T/C (dose: 100.0 mg/kg/injection, schedule: Q04DX002 (ip), vehicle: saline): 93 % of control and 97 % of control

CC/C1=C/N(C=O)CCc2c([nH]c3ccccc23)C(C(=O)OC)(c2cc3c(cc2OC)N(C)C2C(O)(C(=O)OC)C(OC(C)=O)C4(CC)C=CCN5CCC32C54)CC(=O)C1 (configuration not stated)
T/C (dose: 50.0 mg/kg/injection, schedule: Q01DX001 (ip), vehicle: saline): 107 % of control | T/C [10]: 102 % of control | T/C [11]: 96 % of control

Cn1c(-[n+]2ccccc2)nc2c1c(=O)[nH]c(=O)n2C
T/C [19]: 100 % of control | T/C [20]: 102 % of control | T/C [21]: 97 % of control | T/C [22]: 94 % of control | T/C [23]: 102 % of control
